Test system: Normal human fibroblasts
Experiment: Peroxidation of lipids test: protection against UVA-induced lipid peroxidation (8-iso-Prostanes release)
Format: cell-based
Details: pure ellagic acid at 3 μM for 24 h, then UVA exposure, assayed 2 h30 after exposure
Experimental: An evaluation of the protection potential against UVA-induced lipid peroxidation of Punica granatum extract according to the invention obtained according to Example 1 was made and compared to the protection against UVA-induced lipid peroxidation of pure ellagic acid. Normal human fibroblasts are treated either with the Punica granatum extract according to the invention at 0.001% or with pure ellagic acid at 3 μM for 24 h and then exposed to a UVA dose inducing no more than 20% cell death. A control was performed consisting in normal human fibroblasts exposed to a UVA dose inducing no more than 20% cell death. 8-iso-Prostanes release is assayed 2 h30 after the exposure.

Q: For `O=c1oc2c(O)c(O)cc3c(=O)oc4c(O)c(O)cc1c4c23` [Ellagic acid, ellagic acid], which “protection against lipid peroxidation” value (UV-exposed control = 0%) is on record?
A: The value was 35%.

Q: What about the “release of 8-iso-Prostanes” value (UV-exposed control = 100%) of the same molecule?
A: Its value is 65%.

— US12527736B2, “Punica granatum extract and its cosmetic uses” (L'OREAL, priority 2019, dated 2026)
